IC50 data for 17 compounds are collected here from the Kinase Knowledgebase extract (Sharma et al. 2016).

Structures are written as SMILES.

Assay [1] deals with EGFR (Human), P00533 [T790M/L858R]. The conditions noted are these: baf3.
For assay [2], the target named is EGFR (human) (UniProt P00533).
The target of assay [3] is EGFR (human), P00533 [L858R].
The target of assay [4] is EGFR (Human), P00533 [T790M/L858R].
Assay [5] deals with EGFR (Human), P00533 [Assessment of EGFR-Del T790M Dependent Cell Proliferation in BaF3 Cells].
Sequence of EGFR (Human), P00533 [Assessment of EGFR-Del T790M Dependent Cell Proliferation in BaF3 Cells] (P00533 whole entry, looked up, stated change not applied): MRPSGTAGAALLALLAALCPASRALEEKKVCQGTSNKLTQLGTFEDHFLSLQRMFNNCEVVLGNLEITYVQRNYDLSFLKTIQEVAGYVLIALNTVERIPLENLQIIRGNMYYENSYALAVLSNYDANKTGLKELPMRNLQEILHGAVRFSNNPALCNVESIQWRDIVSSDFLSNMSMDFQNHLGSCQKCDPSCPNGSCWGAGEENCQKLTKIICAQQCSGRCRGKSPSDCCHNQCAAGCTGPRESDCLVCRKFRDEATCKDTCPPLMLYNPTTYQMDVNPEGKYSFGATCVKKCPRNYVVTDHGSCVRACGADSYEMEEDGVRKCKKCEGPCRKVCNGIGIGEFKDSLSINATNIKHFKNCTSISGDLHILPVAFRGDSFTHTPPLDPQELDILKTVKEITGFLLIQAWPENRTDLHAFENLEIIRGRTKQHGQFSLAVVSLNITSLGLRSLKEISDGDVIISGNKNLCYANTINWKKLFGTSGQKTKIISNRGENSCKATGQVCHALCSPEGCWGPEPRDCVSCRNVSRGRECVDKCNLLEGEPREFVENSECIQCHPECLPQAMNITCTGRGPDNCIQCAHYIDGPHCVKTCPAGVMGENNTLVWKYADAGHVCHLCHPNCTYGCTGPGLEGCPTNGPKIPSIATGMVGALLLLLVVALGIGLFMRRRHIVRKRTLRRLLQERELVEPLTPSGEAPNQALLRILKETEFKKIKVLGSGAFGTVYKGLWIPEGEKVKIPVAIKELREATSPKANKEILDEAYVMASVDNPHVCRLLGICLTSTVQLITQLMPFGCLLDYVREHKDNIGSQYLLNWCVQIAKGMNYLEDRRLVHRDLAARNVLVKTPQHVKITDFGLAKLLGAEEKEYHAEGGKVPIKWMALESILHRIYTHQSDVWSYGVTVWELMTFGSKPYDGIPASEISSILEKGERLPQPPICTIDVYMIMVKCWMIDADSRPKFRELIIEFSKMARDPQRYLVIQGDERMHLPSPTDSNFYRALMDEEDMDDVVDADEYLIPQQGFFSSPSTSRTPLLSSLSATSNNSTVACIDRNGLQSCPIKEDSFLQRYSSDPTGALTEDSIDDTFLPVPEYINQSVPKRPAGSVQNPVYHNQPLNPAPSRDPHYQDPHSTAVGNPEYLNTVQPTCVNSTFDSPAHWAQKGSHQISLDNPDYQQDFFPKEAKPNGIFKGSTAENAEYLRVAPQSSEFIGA

Sequence of EGFR (human), P00533 [L858R] (P00533 whole entry L858R, looked up): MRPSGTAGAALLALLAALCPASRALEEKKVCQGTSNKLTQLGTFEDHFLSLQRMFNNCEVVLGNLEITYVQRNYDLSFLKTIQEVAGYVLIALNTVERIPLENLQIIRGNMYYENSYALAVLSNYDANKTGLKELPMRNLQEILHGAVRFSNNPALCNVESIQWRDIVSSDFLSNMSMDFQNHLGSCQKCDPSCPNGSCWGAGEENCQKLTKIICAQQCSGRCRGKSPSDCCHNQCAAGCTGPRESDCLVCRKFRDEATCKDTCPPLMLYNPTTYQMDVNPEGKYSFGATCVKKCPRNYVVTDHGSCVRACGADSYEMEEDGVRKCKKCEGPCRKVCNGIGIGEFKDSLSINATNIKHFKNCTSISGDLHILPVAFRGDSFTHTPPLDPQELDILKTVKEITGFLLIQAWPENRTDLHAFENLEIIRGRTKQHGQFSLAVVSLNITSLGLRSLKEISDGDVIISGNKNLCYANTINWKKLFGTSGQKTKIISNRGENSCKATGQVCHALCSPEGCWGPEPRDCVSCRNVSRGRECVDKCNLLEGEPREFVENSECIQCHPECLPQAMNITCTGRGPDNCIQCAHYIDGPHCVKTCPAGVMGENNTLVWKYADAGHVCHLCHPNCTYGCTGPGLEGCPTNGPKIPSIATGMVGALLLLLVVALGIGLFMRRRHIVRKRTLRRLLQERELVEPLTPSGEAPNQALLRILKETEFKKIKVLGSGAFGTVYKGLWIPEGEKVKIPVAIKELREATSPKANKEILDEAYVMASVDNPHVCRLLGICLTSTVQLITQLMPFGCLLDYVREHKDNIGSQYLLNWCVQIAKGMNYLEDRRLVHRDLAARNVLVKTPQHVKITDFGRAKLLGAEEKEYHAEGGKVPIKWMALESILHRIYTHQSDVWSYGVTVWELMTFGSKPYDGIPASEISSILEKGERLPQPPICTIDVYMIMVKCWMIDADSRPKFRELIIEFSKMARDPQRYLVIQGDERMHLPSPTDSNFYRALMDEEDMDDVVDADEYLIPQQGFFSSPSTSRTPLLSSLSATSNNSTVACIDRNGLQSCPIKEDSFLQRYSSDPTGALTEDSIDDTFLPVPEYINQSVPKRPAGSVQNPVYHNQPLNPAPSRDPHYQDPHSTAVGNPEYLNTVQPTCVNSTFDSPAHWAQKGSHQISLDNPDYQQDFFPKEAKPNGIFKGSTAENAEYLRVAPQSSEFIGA
Sequence of EGFR (Human), P00533 [T790M/L858R] (P00533 whole entry T790M/L858R, looked up): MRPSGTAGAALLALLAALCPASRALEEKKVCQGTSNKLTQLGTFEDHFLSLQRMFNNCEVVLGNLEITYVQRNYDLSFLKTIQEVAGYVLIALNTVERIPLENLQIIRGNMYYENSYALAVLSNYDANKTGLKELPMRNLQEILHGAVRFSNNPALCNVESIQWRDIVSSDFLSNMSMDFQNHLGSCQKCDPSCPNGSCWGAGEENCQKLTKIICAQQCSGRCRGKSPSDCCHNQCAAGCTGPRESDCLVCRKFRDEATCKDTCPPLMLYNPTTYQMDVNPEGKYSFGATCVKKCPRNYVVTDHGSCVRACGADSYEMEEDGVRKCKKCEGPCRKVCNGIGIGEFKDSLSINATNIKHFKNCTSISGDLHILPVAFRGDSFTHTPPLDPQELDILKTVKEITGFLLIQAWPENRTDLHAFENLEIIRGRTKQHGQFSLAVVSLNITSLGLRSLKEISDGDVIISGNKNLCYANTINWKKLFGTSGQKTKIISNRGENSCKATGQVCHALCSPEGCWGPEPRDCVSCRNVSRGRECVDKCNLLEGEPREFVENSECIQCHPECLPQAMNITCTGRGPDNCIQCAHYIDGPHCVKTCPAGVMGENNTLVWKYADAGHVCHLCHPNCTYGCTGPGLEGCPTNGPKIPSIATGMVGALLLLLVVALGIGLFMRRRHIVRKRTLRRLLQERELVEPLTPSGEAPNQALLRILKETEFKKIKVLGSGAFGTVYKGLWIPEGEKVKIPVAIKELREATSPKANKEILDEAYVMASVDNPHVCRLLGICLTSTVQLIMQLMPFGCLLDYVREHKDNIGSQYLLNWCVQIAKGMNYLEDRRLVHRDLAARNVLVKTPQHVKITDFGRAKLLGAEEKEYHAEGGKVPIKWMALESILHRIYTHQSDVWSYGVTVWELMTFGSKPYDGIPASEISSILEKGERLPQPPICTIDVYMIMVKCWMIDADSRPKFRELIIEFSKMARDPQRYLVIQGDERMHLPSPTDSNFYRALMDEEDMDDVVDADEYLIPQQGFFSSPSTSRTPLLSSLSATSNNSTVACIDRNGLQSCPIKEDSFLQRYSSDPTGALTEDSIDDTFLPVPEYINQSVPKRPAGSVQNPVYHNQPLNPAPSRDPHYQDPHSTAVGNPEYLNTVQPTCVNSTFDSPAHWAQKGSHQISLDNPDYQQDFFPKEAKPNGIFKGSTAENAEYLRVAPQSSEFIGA
Sequence of EGFR (human) (P00533 whole entry, looked up): as the sequence (P00533 whole entry, looked up, stated change not applied) above

Usually IC50 stands for the concentration needed to halve the response being measured. High values mean lower potency, low ones higher potency. Regarding `C=CC(=O)Nc1cc(Nc2ncc(Cl)c(Nc3ccccc3P(C)(C)=O)n2)c(OC)cc1N1CCC(N2CCN(C)CC2)C1` (stereo not given), the IC50 was 101 to 250 nM in assay [1]; less than 50 nM in assay [2]; less than 50 nM in assay [3]; less than 50 nM in assay [4]; 50 to 100 nM in assay [5].

On to `C=CC(=O)Nc1cc(Nc2ncc(Cl)c(Nc3ccccc3P(C)(C)=O)n2)c(OC)cc1O[C@@H](COC)CN(C)C`, for which the IC50 in assay [1], in assay [2], in assay [3], in assay [4] and in assay [5] was less than 50 nM in each case.

For `CC#CC(=O)Nc1cc(Nc2ncc(Cl)c(Nc3ccccc3P(C)(C)=O)n2)c(OC)cc1N1CCC(N(C)C)C1` (stereo not given), the 50% inhibitory concentration (IC50) was 50 to 100 nM in assay [1]; less than 50 nM in assay [2]; less than 50 nM in assay [3]; less than 50 nM in assay [4]; less than 50 nM in assay [5].

Regarding `C=CC(=O)Nc1ccc(OC(F)(F)F)c(Nc2ncc(Cl)c(Nc3ccccc3P(C)(C)=O)n2)c1`, the half-maximal inhibitory concentration (IC50) in assay [1], in assay [2], in assay [3], in assay [4] and in assay [5] was less than 50 nM throughout.

For the compound `C=C(CN1CCOCC1)C(=O)Nc1ccc(OC)c(Nc2ncc(Cl)c(Nc3ccccc3P(C)(C)=O)n2)c1`, the IC50 in assay [1], in assay [2], in assay [3], in assay [4] and in assay [5] was less than 50 nM throughout.

As to `C=CC(=O)Nc1cc(Nc2ncc(Cl)c(Nc3ccccc3P(C)(C)=O)n2)c(Cl)cc1OC(COC)CN(C)C` (stereo not given), the IC50 in assay [1], in assay [2], in assay [3], in assay [4] and in assay [5] was less than 50 nM in each case.

Take `C=CC(=O)Nc1cc(Nc2ncc(Cl)c(Nc3ccccc3P(C)(C)=O)n2)c(OC)cc1OC(COC)CN(C)C` (stereo not given): the IC50 in assay [1], in assay [2], in assay [3], in assay [4] and in assay [5] was less than 50 nM in each case.

Regarding `Cc1ccc(NC(=O)CCl)cc1Nc1ncc(Cl)c(Nc2ccccc2P(C)(C)=O)n1`, the IC50 in assay [1], in assay [2], in assay [3], in assay [4] and in assay [5] was less than 50 nM throughout.

For the compound `COc1ccc(NC(=O)/C=C/Cl)cc1Nc1ncc(Cl)c(Nc2ccccc2P(C)(C)=O)n1`, the concentration for half-maximal inhibition (IC50) in assay [1], in assay [2], in assay [3], in assay [4] and in assay [5] was less than 50 nM throughout.

With `C=CC(=O)Nc1cc(Nc2ncc(Cl)c(Nc3ccccc3P(C)(C)=O)n2)c(OC)cc1N1CCN(C2CCN(C)CC2)CC1`, the 50% inhibitory concentration (IC50) was 101 to 250 nM in assay [1]; less than 50 nM in assay [2]; less than 50 nM in assay [3]; less than 50 nM in assay [4]; 50 to 100 nM in assay [5].

Turning to `C=CC(=O)Nc1cc(Nc2ncc(Cl)c(Nc3ccccc3P(C)(C)=O)n2)c(OC)cc1C#CC(C)(C)N1CCCC1`, the 50% inhibitory concentration (IC50) in assay [1] is less than 50 nM; in assay [2], 50 to 100 nM; in assay [3], less than 50 nM; in assay [4], less than 50 nM; in assay [5], less than 50 nM.

As to `CCOC(=O)/C=C/C(=O)Nc1ccc(OC)c(Nc2ncc(Cl)c(Nc3ccccc3P(C)(C)=O)n2)c1`, the IC50 in assay [1], in assay [2], in assay [3], in assay [4] and in assay [5] was less than 50 nM each time.

On to `COc1cc(N2CCOCC2)c(NC(=O)C#CCN(C)C)cc1Nc1ncc(Cl)c(Nc2ccccc2P(C)(C)=O)n1`, for which the IC50 in assay [1], in assay [2], in assay [3], in assay [4] and in assay [5] was less than 50 nM in each case.

In the case of `C=CC(=O)Nc1cc(Nc2ncc(Cl)c(Nc3ccccc3P(C)(C)=O)n2)c(OC)cc1OC1CCCN(CCOC)C1` (stereo not given), the IC50 in assay [1], in assay [2], in assay [3], in assay [4] and in assay [5] was less than 50 nM in each case.

As for `C=CC(=O)Nc1cc(Nc2ncc(Cl)c(Nc3ccccc3P(C)(C)=O)n2)c(OC)cc1O[C@@H]1CCCN(C)C1`, the half-inhibitory concentration (IC50) in assay [1], in assay [2], in assay [3], in assay [4] and in assay [5] was less than 50 nM throughout.

With `C=CC(=O)Nc1cc(Nc2ncc(Cl)c(Nc3ccccc3P(C)(C)=O)n2)c(OC)cc1N1CC[C@H](N(C)C)C1`, the IC50 in assay [1], in assay [2], in assay [3], in assay [4] and in assay [5] was less than 50 nM each time.

Turning to `C=CC(=O)Nc1cc(Nc2ncc(Cl)c(Nc3ccccc3P(C)(C)=O)n2)c(OC)cc1C#CCNC`, the IC50 in assay [1], in assay [2], in assay [3], in assay [4] and in assay [5] was less than 50 nM in each case.
